pIC50: −log10 of the molar value.
Target: T1, SOS1 (Homo sapiens, UniProt Q07889)
T1 construct: comprising amino acid residues 564-1049 corresponding to the catalytic domain; purchased Reaction Biology Corp. SOS1-Strep #MSC-11-502; GST-KRAS G12C #MSC-11-538
T1 sequence (Q07889 564-1049): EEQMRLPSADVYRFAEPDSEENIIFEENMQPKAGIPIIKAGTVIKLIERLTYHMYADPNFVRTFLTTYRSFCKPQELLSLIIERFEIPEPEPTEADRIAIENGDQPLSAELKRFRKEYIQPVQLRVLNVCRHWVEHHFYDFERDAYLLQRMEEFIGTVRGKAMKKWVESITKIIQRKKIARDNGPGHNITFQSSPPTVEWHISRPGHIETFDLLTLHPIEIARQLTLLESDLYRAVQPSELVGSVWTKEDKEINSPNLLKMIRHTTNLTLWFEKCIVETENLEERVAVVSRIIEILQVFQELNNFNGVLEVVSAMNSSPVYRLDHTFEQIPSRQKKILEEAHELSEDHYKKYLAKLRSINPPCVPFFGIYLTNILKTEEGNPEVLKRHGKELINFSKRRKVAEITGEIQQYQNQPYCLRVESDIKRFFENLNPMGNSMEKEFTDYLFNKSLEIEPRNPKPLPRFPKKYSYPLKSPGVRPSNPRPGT
Experiment: Inhibitory activity on SOS1-mediated GTP exchange (HTRF / TR-FRET nucleotide exchange assay on KRAS G12C)
Assay type: biochemical
Conditions: SOS1-mediated GTP exchange on GST-KRAS G12C (residues 2-169); SOS1-Strep catalytic domain (564-1049); GTP-DY-647P1; HTRF signal; 5-point concentration series up to 1,000 nM
Procedure: To evaluate whether the SOS1-mediated nucleotide exchange activity on KRAS G12C is inhibited by the compounds of the above Examples, a homogeneous time-resolved fluorescence (homogenous time-resolved fluorescence, HTRF) assay was performed using GST-KRAS G12C (#MSC-11-538) and SOS1-Strep (#MSC-11-502) obtained from Reaction Biology Corp. (USA, MA). The activity of SOS1 was determined by measuring the amount of GTP bound to the KRAS G12C protein based on the principle of time-resolved fluorescence resonance energy transfer (time-resolved fluorescence energy transfer, TR-FRET). Terbium (Terbium) conjugated to an anti-GST antibody bound to the GST tag of the GST-KRAS G12C protein served as a FRET donor, and GTP bound to the KRAS G12C protein was labeled with the fluorophore DY-647P1, serving as a FRET acceptor. Based on this principle, a higher HTRF or FRET signal is observed as more GTP is bound to KRAS G12C due to the SOS1-mediated exchange reaction in the assay.
In summary, a GST-labeled KRAS G12C protein (comprising amino acid residues 2-169), a […] SOS1 protein (comprising amino acid residues 564-1049 corresponding to the catalytic domain), an anti-GST antibody, labeled nucleotide GTP-DY-647P1, and the test compound were mixed in a buffer solution containing 20 mM HEPES (pH 7.4), 150 mM NaCl, 5 mM MgCl2, 1 mM dithiothreitol (DTT), 0.05% BSA, and 0.0025% NP40. The mixture was dispensed into a 384-well plate, incubated at room temperature, and the HTRF signal was measured using a PHERAstar microplate reader (BMG Labtech). The excitation wavelength was 337 nm, and emission was measured at 620/665 nm. A background signal value was determined from fluorescence measurements obtained in the absence of SOS1 protein and was subtracted from all measured HTRF values. A control value was determined from fluorescence measurements obtained in the absence of the synthesized compounds and was set as the 100% reference. Fluorescence signals were measured at compound concentrations of 0.1, 1, 10, 100, and 1,000 nM (5 points, 10-fold) or 1.6, 8, 40, 200, and 1,000 nM (5 points, 5-fold). The 50% inhibitory concentration (IC50) values of the compounds were calculated using GraphPad Prism.
IC50 values were denoted as +++ when 50 nM or less, ++ when greater than 50 nM and 100 nM or less, and + when greater than 100 nM.

Row | SMILES | pIC50
1 | CNc1cc2c(N[C@H](C)c3cccc(C#N)c3C)nnc(C)c2cc1C(=O)N1CCSC1 [Example 3, (R)-2-methyl-3-(1-((4-methyl-7-(methylamino)-6-(thiazolidine-3-carbonyl)phthalazin-1-yl)amino)ethyl)benzonitrile] | ≥ 7.30
2 | CNc1cc2c(N[C@H](C)c3cccc(C#N)c3C)nnc(C)c2cc1C(=O)N1CCN(C(C)C)CC1 [Example 21, (R)-3-(1-((6-(4-isopropylpiperazine-1-carbonyl)-4-methyl-7-(methylamino)phthalazin-1-yl)amino)ethyl)-2-methylbenzonitrile] | ≥ 7.30
3 | CNc1cc2c(N[C@H](C)c3cccc(C#N)c3C)nnc(C)c2cc1C(=O)N1CC2CC1CO2 (stereo partly drawn) [Example 19, 3-((1R)-1-((6-(2-oxa-5-azabicyclo[2.2.1]heptane-5-carbonyl)-4-methyl-7-(methylamino)phthalazin-1-yl)amino)ethyl)-2-methylbenzonitrile] | ≥ 7.30
4 | CNc1cc2c(N[C@H](C)c3cccc(C#N)c3C)nnc(C)c2cc1C(=O)N1CCN(C2CC2)CC1 [Example 13, (R)-3-(1-((6-(4-cyclopropylpiperazine-1-carbonyl)-4-methyl-7-(methylamino)phthalazin-1-yl)amino)ethyl)-2-methylbenzonitrile] | ≥ 7.30
5 | CNc1cc2c(N[C@H](C)c3cccc(C#N)c3C)nnc(C)c2cc1C(=O)N1CCC(F)(F)CC1 [Example 10, (R)-3-(1-((6-(4,4-difluoropiperidin-1-carbonyl)-4-methyl-7-(methylamino)phthalazin-1-yl)amino)ethyl)-2-methylbenzonitrile] | ≥ 7.30
6 | CNc1cc2c(N[C@H](C)c3cccc(C#N)c3C)nnc(C)c2cc1C(=O)N1CCC1 [Example 16, (R)-3-(1-((6-(azetidine-1-carbonyl)-4-methyl-7-(methylamino)phthalazin-1-yl)amino)ethyl)-2-methylbenzonitrile] | ≥ 7.30
7 | CNc1cc2c(N[C@H](C)c3cccc(C#N)c3C)nnc(C)c2cc1C(=O)N1CCN(C2CCCCC2)CC1 [Example 20, (R)-3-(1-((6-(4-cyclohexylpiperazine-1-carbonyl)-4-methyl-7-(methylamino)phthalazin-1-yl)amino)ethyl)-2-methylbenzonitrile] | ≥ 7.30
8 | CNc1cc2c(N[C@H](C)c3cccc(C#N)c3C)nnc(C)c2cc1C(=O)N1CC2COCC2C1 (stereo partly drawn) [Example 7, 3-((1R)-1-((6-(hexahydro-1H-furo[3,4-c]pyrrole-5-carbonyl)-4-methyl-7-(methylamino)phthalazin-1-yl)amino)ethyl)-2-methylbenzonitrile] | ≥ 7.30

Further lines, results first:

Row | pIC50 | SMILES
9 | ≥ 7.30 | CNc1cc2c(N[C@H](C)c3cc(N)cc(C(F)(F)F)c3)nnc(C)c2cc1C(=O)N1CCOCC1 [Example 25, (R)-(1-((1-(3-amino-5-(trifluoromethyl)phenyl)ethyl)amino)-4-methyl-7-(methylamino)phthalazin-6-yl)(morpholino)methanone]
10 | ≥ 7.30 | Cc1c(C#N)cccc1[C@@H](C)Nc1nnc(C)c2cc(CN3CCN(C4CC4)CC3)c(NC3CCCC3)cc12 [Example 31, (R)-3-(1-((7-(cyclopentylamino)-6-((4-cyclopropylpiperazin-1-yl)methyl)-4-methylphthalazin-1-yl)amino)ethyl)-2-methylbenzonitrile]
11 | ≥ 7.30 | CNc1cc2c(N[C@H](C)c3cccc(C#N)c3C)nnc(C)c2cc1C(=O)N1CCCOCC1 [Example 24, (R)-2-methyl-3-(1-((4-methyl-7-(methylamino)-6-(1,4-oxazepane-4-carbonyl)phthalazin-1-yl)amino)ethyl)benzonitrile]
12 | ≥ 7.30 | CNc1cc2c(N[C@H](C)c3cccc(C#N)c3C)nnc(C)c2cc1C(=O)NCCN1CCOCC1 [Example 23, (R)-1-((1-(3-cyano-2-methylphenyl)ethyl)amino)-4-methyl-7-(methylamino)-N-(2-morpholinoethyl)phthalazine-6-carboxamide]
